Reference: patent publication US20080207632A1, “PROTEIN KINASE INHIBITORS” (SUPERGEN, INC., priority 2006, published 2008)
One block for each molecule: values may come before it.

Legend:
[1] = test system: Granta-4 lymphoma cell line; assay: lymphoma cell number reduction, Granta-4; assay type: cell-based; settings: 48 hours; read-out: IC50 Values Granta-4, single agent
Protocol: (§1) New IC50 values were calculated for the second agent in an effort to determine whether or not pretreatment with one compound would increase sensitivity to the other. As set forth in the table below, compound 2-3 pretreatment led to an increased sensitivity to Taxol®, however Taxol® pretreatment appeared to be […] to compound 2-3 in this assay.

[2] = test system: Granta-22 lymphoma cell line; assay: lymphoma cell number reduction, Granta-22; assay type: cell-based; settings: 48 hours; read-out: IC50 Values Granta-22, single agent
Protocol: as §1

aurora-2 kinase = biological target: T1, aurora-2 kinase (Homo sapiens, UniProt O14965); assay: aurora-2 kinase inhibition assay (Kinase-Glo, ATP remaining); assay type: biochemical; settings: Example 54, Table 8; 3 μM ATP; read-out: Aurora-2 Inhibition, IC50
T1 construct: purchased Upstate, Lake Placid, N.Y; host or cells: sf9 cells
T1 sequence (O14965 1-403): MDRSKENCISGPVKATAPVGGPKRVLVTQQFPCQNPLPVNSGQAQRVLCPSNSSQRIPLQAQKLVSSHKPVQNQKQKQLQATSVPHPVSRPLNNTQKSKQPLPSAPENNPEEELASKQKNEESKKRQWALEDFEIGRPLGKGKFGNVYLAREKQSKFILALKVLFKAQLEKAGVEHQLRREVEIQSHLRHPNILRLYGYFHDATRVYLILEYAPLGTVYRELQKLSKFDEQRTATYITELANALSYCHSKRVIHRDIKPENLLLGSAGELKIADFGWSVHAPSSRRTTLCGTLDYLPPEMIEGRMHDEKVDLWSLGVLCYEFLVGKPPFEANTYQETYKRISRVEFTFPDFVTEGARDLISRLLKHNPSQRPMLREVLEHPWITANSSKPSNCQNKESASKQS
Protocol: (§2) In this assay kinase activity was determined by quantifying the amount of ATP remaining in solution following a kinase reaction by measuring the light units (LU) produced by luciferase using a luminometer. Percent inhibition was determined for individual compounds by comparing luminometer readings of drug-treated reactions to controls containing no drug (DMSO control) and no Aurora-2 enzyme (ATP control) in the following equation: […]
(§3) In a 50 μl reaction, recombinant aurora-2 kinase produced in sf9 cells (Upstate, Lake Placid, N.Y.) was incubated at 30° C. for two hours with 62.5 μM Kemptide (Calbiochem, San Diego, Calif.), 3 μM ATP (Invitrogen, Carlsbad, Calif.) and kinase reaction buffer (40 mM Tris-HCl, 10 mM MgCl2 and 0.1 μg/μl bovine serum albumin (BSA)). This reaction was carried out in the presence of drug substances, which had been previously diluted to desired concentrations in DMSO. After incubation, 50 μl of Kinase-Glo® (Promega, Inc., Madison, Wis.) solution was added to each reaction mixture and allowed to equilibrate for 10 minutes at room temperature. Kinase-Glo solution contains luciferase enzyme and luciferin, which react with ATP to produce light. Kinase activity is determined by quantifying the amount of ATP remaining in solution following the kinase reaction by measuring the light units (LU) produced by luciferase using a luminometer (Thermo-Electron, Vantaa, Finland).
as §2, with “Briefly,” for “In this assay”
as §3, with “μg/Il” for “μg/μl”
as §2, with “Illustrative compounds 2-3, 2-5, 2-7, 2-4 and 2-9 were evaluated in an aurora-2 kinase inhibition assay. In” for “In”

[3] = biological target: T2, phosphorylated Axl in MDA-MB-231 breast carcinoma cells (Homo sapiens, UniProt P30530); assay: Axl autophosphorylation sandwich ELISA in cells; assay type: cell-based; settings: 10 uM, 48 hours
T2 construct: endogenous in cells; host or cells: MDA-MB-231 breast carcinoma cells
Protocol: Compound 2-11 was examined in a cell-based assay to determine its ability to reduce the activity of the Axl kinase enzyme in cell culture. Axl, like many receptor tyrosine kinases, autophosphorylates in response to growth factor stimulation. Briefly, MDA-MB-231 breast carcinoma cells were plated in 25 cm^2 tissue culture flasks and incubated in the presence of varying concentrations of Compound 2-11 for 48 hours. Following incubation, cells were lysed and the presence of phosphorylated Axl was detected using a commercially available sandwich ELISA assay kit (R&D Systems Inc.). […] For example, at concentrations as low as 10 uM, levels of phosphorylated Axl were reduced to less than 50% of those observed for untreated control samples.

[4] = test system: MDA-MB-231 breast carcinoma cells; assay: cell proliferation assay (Cell-Titer-Glo), MDA-MB-231; assay type: cell-based; settings: Homo sapiens, Example 65, 96 hours, read-out: IC50 (reduce cell number to 50% of untreated controls)
Protocol: Cell culture-based assays can be used to evaluate the ability of compounds of the invention to inhibit one or more cellular activities, such as cancer cell growth and/or survival. Numerous cancer cell lines can be obtained from the American Type Culture Collection (ATCC) and other sources. Briefly, cells are seeded into 96-well, tissue-culture treated, opaque white plates (Thermo Electron, Vantaa, Finland), at between 5000 and 10000 cells per well, depending on the speed of cell proliferation, in 100 μl of appropriate growth medium (determined by the ATCC). Cells are then exposed to the appropriate concentration of drug or an equal amount of DMSO (drug diluent) and allowed to grow in its presence for 96 hours. Following this, 100 μl of Cell-Titer-Glo reagent (Promega, Inc., Madison, Wis.) is added to each well. Plates are then shaken for 2 minutes at room temperature to allow for cell lysis and incubated for 10 minutes to stabilize the luminescent signal. Similar to the Kinase-Glo assay reagent from Promega, this reagent contains both luciferase enzyme and its substrate luciferin. Luciferase, activated by ATP in the cell lysate, catalyzes the conversion of luciferin to oxyluciferin, a reaction which produces light. The amount of light produced is proportionate to the amount of ATP in the cell lysate, which is itself proportional to cell number and gives an index of cellular proliferation.
Compound 1-1 and Compound 2-11 were tested in a cell proliferation assay to determine potency in a cell-based assay format. Briefly, MDA-MB-231 breast carcinoma cells were inoculated onto 96-well plates and incubated in the presence of compounds for 96 hours. Following incubation, cells were lysed and ATP content used as a surrogate for cell number, using the Cell-Titer-Glo Luminescent Cell Viability Assay Kit (Promega Corp.). IC50 values, representing the concentration required to reduce cell number to 50% of untreated controls, were determined to be 20 uM for Compound 1-1 and 10 uM for Compound 2-11.

T2 sequence (P30530 26-894): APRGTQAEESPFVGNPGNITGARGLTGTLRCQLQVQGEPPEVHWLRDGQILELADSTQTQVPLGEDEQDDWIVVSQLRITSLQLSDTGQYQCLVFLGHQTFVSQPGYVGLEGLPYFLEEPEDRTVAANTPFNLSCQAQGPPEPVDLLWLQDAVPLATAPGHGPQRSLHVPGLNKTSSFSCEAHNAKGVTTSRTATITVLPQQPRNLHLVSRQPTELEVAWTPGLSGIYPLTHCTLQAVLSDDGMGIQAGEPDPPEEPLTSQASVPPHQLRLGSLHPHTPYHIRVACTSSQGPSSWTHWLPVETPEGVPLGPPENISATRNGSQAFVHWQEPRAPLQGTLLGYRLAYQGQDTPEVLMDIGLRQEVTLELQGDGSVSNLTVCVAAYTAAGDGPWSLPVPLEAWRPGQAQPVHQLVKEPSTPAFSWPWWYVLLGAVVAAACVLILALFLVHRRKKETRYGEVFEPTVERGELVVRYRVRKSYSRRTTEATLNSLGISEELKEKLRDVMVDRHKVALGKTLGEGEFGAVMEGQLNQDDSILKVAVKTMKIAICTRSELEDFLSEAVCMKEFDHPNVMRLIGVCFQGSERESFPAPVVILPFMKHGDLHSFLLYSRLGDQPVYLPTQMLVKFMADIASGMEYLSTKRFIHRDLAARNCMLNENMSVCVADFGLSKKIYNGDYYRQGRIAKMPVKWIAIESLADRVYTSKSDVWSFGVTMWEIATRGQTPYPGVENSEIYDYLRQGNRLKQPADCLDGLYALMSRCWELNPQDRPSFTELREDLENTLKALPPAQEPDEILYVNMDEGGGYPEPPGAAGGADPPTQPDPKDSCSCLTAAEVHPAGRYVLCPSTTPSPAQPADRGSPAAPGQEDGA

- IC50 [1]: 301 nM
- IC50 [2]: 2720 nM
Compound: CC(=O)O[C@H]1C(=O)[C@@]2(C)[C@H]([C@H](OC(=O)c3ccccc3)[C@]3(O)C[C@H](OC(=O)[C@H](O)[C@@H](NC(=O)c4ccccc4)c4ccccc4)C(C)=C1C3(C)C)[C@]1(OC(C)=O)CO[C@@H]1C[C@@H]2O [Taxol ®, reference compound]

- IC50 (aurora-2 kinase): 153 nM
Compound: COc1cc2[nH]c3ncnc(N4CCN(C(=S)Nc5ccc(S(=O)(=O)Nc6ccc(C(F)(F)F)cc6)cc5)CC4)c3c2cc1OC [Compound 2-4, 4-(6,7-dimethoxy-9H-pyrimido[4,5-b]indol-4-yl)-N-(4-(N-(4-trifluoronethylhenyl)sulfamoyl)phenyl)piperazine-1-carbothioamide]

- levels of phosphorylated Axl relative to untreated control samples [3]: less than 50%
- IC50 [4]: 10000 nM
Compound: CCc1nnc(NS(=O)(=O)c2ccc(NC(=S)N3CCN(c4ncnc5[nH]c6ccc(Cl)cc6c45)CC3)cc2)s1 [Compound 2-11]
